We go through 49 molecules from ChEMBL document CHEMBL3232874, “The applications of binuclear metallohydrolases in medicine: recent advances in the design and development of novel drug leads for purple acid phosphatases, metallo-β-lactamases and arginases” (Eur J Med Chem, 2014).

Assay [1] is described as follows: Inhibition of Bacillus cereus 5/B/6 metallo-beta-lactamase […] incubated for 1 min prior to substrate addition by spectrophotometry.
Assay [2] in a line: Inhibition of metallo-beta-lactamase IMP-1 (unknown origin).
Assay [3] is described as follows: Inhibition of pig purple acid phosphatase at pH 3.3. Set-up: species or system Sus scrofa.
Assay [4] can be described thus: Inhibition of pig purple acid phosphatase at pH 4.9. Set-up: species or system Sus scrofa.
The next assay addresses Beta-lactamase L1 (Stenotrophomonas maltophilia, UniProt P52700). The assay can be described thus: Inhibition of Stenotrophomonas maltophilia metallo-beta-lactamase L1 after 5 mins.
The nature of assay [5]: Inhibition of human recombinant purple acid phosphatase at pH 3.3.
The nature of assay [6]: Inhibition of human recombinant purple acid phosphatase at pH 4.9.
Assay [7] in a line: Inhibition of Bacillus cereus metallo-beta-lactamase BcII.
For assay [8], the target named is T1, Fe(3+)-Zn(2+) purple acid phosphatase (Phaseolus vulgaris, UniProt P80366).
T1 sequence (P80366 whole entry): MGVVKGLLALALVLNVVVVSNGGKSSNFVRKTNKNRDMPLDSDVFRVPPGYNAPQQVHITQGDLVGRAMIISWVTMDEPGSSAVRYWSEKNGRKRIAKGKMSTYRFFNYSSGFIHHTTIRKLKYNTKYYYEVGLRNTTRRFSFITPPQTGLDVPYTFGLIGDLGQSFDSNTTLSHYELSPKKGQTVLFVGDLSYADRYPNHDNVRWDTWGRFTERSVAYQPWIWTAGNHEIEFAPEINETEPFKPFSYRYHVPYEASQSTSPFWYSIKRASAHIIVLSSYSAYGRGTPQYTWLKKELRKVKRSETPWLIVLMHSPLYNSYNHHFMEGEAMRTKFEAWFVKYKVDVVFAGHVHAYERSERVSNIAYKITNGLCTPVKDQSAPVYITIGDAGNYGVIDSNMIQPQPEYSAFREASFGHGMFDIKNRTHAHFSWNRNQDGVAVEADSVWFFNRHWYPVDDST
Description: Inhibition of red kidney beans purple acid phosphatase.

The nature of assay [9]: Competitive inhibition of Bacillus cereus 569/H metallo-beta-lactamase BcII by Eadie-Hofstee plot analysis.
A short description of assay [10]: Inhibition of metallo-beta-lactamase BcII (unknown origin).
Assay [11] can be described thus: Inhibition of metallo-beta-lactamase CcrA (unknown origin).
Assay [12] can be described thus: Inhibition of human arginase.
Assay [13] is described as follows: Inhibition of Plasmodium berghei arginase.
The next assay deals with T2, Arginase-1 (Rattus norvegicus, UniProt P07824).
T2 sequence (P07824 whole entry): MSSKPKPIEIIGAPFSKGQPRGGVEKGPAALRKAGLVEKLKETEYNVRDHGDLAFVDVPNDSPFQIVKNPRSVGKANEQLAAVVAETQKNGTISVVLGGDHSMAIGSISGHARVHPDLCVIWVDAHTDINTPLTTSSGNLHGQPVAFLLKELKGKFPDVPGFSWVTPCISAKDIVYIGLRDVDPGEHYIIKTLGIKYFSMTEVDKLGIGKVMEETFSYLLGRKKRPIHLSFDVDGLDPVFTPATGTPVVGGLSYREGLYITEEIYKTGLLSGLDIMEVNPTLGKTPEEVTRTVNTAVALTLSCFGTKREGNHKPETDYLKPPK
Description: Inhibition of rat liver arginase.

Assay [14] in a line: Inhibition of mouse macrophage arginase.
The target of assay [15] is Metallo-beta-lactamase type 2 (Bacteroides fragilis, UniProt P25910). Description: Competitive inhibition of Bacteroides fragilis metallo-beta-lactamase CcrA.
Chain of Metallo-beta-lactamase type 2 (P25910 whole entry): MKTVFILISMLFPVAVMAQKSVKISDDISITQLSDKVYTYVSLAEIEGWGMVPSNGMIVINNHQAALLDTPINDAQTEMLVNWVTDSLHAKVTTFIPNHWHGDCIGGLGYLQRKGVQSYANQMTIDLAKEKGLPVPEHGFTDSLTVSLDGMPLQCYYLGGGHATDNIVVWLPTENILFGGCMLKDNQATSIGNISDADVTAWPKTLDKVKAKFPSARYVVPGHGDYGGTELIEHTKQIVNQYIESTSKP
A short description of assay [16]: Inhibition of arginase (unknown origin). Further details: species or system Homo sapiens; call rule not given here.
Assay [17] in a line: Inhibition of metallo-beta-lactamase VIM2 (unknown origin).
A short description of assay [18]: Inhibition of metallo-beta-lactamase CphA (unknown origin).
A short description of assay [19]: Inhibition of metallo-beta-lactamase L1 (unknown origin).
Assay [20] is described as follows: Inhibition of human purple acid phosphatase.
Assay [21] can be described thus: Inhibition of metallo-beta-lactamase IMP-1 (unknown origin) using nitrocefin as substrate incubated for 15 mins prior to substrate addition.

Square brackets hold non-standard residues; d marks the D form. Peptide text beside a SMILES is read from it. * marks the point of attachment. F2Pmp = N[C@@H](Cc1ccc(C(F)(F)P(=O)(O)O)cc1)C(=O)O; Phe(4-COOH) = N[C@@H](Cc1ccc(C(=O)O)cc1)C(=O)O; Fmoc = O=C(OCC1c2ccccc2-c2ccccc21)*

Chain of Beta-lactamase L1 (P52700 whole entry): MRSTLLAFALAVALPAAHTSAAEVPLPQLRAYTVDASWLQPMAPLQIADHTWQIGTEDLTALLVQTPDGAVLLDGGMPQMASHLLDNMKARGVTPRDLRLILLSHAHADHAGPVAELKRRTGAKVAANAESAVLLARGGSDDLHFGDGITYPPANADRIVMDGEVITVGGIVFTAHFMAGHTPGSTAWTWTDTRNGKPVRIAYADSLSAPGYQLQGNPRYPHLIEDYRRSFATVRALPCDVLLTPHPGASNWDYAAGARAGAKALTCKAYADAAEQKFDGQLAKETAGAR

Consider `O=S(=O)(N/N=C/c1c2ccccc2cc2ccccc12)c1ccc2ccccc2c1`, for which the Ki in assay [1] worked out at 0.02 µM. Moreover, the IC50 in assay [2] stood at 1.6 µM.
With `C[C@H](NC(=O)[C@H](Cc1ccc(C(C(=O)O)C(=O)O)cc1)NC(=O)[C@H](CCC(=O)O)NC(=O)OCC1c2ccccc2-c2ccccc21)C(N)=O`, the Ki in assay [3] was 6 µM; in assay [4], 38 µM.
For the molecule `COC(=O)c1cc(SCC(NC(C)=O)C(=O)OC)cc2nc3c(C(=O)O)cccc3nc12` (stereo unspecified), the IC50 against Beta-lactamase L1 came to 1 µM.
As for `C[C@H](NC(=O)[C@H](Cc1ccc(OC(F)(C(=O)O)C(=O)O)cc1)NC(=O)[C@H](CCC(=O)O)NC(=O)OCC1c2ccccc2-c2ccccc21)C(=O)O`, the Ki in [5] was determined as 36 µM; in [6] it was 74 µM.
The molecule `SCc1ccccc1` [BENZENEMETHANETHIOL] displayed an IC50 in assay [7] of 9.2 µM.
The molecule `O=C(O)CP(=O)(O)O` [FOSFONET] displayed a Ki in assay [8] of 590 µM.
As for `O=C(O)c1ccccc1S` [THIOSALICYLIC ACID], the affinity in assay [7] corresponds to a Ki of 9.2 µM.
As for `CC(=O)Oc1cc(C[C@H](NC(=O)[C@H](CCC(=O)O)NC(=O)OCC2c3ccccc3-c3ccccc32)C(=O)N[C@@H](C)C(N)=O)ccc1OCC(=O)O`, the results for the Ki in assay [3] and in assay [4] were 413 µM and 777 µM, respectively.
`OCCCS` came in with an INH in assay [2] of 2.5 µM.
The molecule `CC(=O)N[C@H]1[C@H](O[C@H]2C[C@@H](C(=O)NCCS(=O)(=O)O)N[C@@H]2CO)O[C@H](CO)[C@@H](OS(=O)(=O)O)[C@@H]1O` [BULGECIN A] displayed an IC50 in [9] of 230 µM.
`COC1OC(C)=Cc2oc3cc(O)c(O)c(C(=O)O)c3c(=O)c21` (stereo unspecified): the Ki in assay [10] stood at 79 µM; in assay [2] it was 17 µM; in assay [11], 3.4 µM.
On to `N[C@@H](CCCC[N+](=O)[O-])C(=O)O`, for which the values for the Ki in assay [12] and in assay [13] were 60 µM and 11 µM, respectively.
Molecule `O=C(O)CCS` gave an INH in assay [2] of 1.2 µM.
On to `O=P(O)(O)CS`, for which the IC50 in [8] came out at 80 µM.
Regarding `N=C(NO)NCC[C@H](N)C(=O)O` [NOR-NOHA], the IC50 was 2 µM against Arginase-1 and 50 µM in [14].
With `O[C@H](CS)[C@@H](O)CS`, the INH in assay [2] was found to be 2.2 µM.
In assay [15], `c1ccc(-c2nnn[nH]2)c(-c2ccc(Cn3c4ccccc4c4ccccc43)cc2)c1` displayed an IC50 of 0.3 µM.
With `C[C@H](NC(=O)[C@H](Cc1ccc(C(F)(F)P(=O)(O)O)cc1)NC(=O)[C@H](CCC(=O)O)NC(=O)OCC1c2ccccc2-c2ccccc21)C(=O)O` (Fmoc-Glu-[F2Pmp]-Ala-OH), the results for the Ki in [5] and in [6] were 67 µM and 63 µM, respectively.
Take `NNC(N)=S` [THIOSEMICARBAZIDE]: in assay [16], the Ki is 100 µM.
Take `CC(NC(=O)COc1ccccc1)C(=O)C(F)(F)F` (stereo unspecified): the inhibition constant Ki in assay [17], in assay [18], in [10] and in [19] was 1.5 µM each time.
As for `O=P(O)(O)c1ccccc1S`, the IC50 in assay [8] was 350 µM.
Consider `O=C(O)C(S)c1ccccc1` (stereo unspecified), for which, in assay [7], the Ki came to 0.09 µM.
`O=P(O)(O)C(Cc1ccc(-c2ccccc2)cc1)c1cccc2ccccc12` (stereo unspecified): the IC50 in assay [20] (read-out: IC50) was 6.3 µM.
On Beta-lactamase L1, `COC(=O)c1c(O)ccc2nc3c(C(=O)O)cccc3nc12` showed an IC50 of 1 µM.
As for `C[C@H](NC(=O)[C@H](Cc1ccc(C(=O)O)cc1)NC(=O)[C@H](CCC(=O)O)NC(=O)OCC1c2ccccc2-c2ccccc21)C(N)=O` (Fmoc-Glu-[Phe(4-COOH)]-Ala-NH2), the Ki in [3] worked out at 100 µM; in assay [4] it was 161 µM.
Molecule `OCCS` yielded an INH in [2] of 12 µM.
Take `C[C@H](NC(=O)[C@H](Cc1ccc(C(F)(C(=O)O)C(=O)O)cc1)NC(=O)[C@H](CCC(=O)O)NC(=O)OCC1c2ccccc2-c2ccccc21)C(N)=O`: the Ki in [3] stood at 8 µM; in [4], 49 µM.
`O=C(O)[C@@H](Cc1ccc2c(c1)OCO2)[C@H](Cc1ccc2c(c1)OCO2)C(=O)O` had an IC50 in assay [21] of 0.009 µM.
For the molecule `O=P(O)(O)Cc1cccc2ccccc12`, the IC50 in assay [20] (read-out: IC50) was determined as 30 µM.
In [7], `COc1ccc(C(S)C(=O)O)cc1` (stereo unspecified) came in with a Ki of 0.09 µM.
On to `O=C(O)c1cccc(C(=O)O)n1` [DIPICOLINIC ACID], for which the IC50 was 21.8 µM in assay [10] and 7.8 µM in assay [19].
`O=C(O)CCP(=O)(O)O` gave a Ki in assay [8] of 160 µM.
With `CC(S)C(=O)O` (stereo unspecified), in assay [2], the INH is 0.19 µM.
On to `O=C(O)C(S)c1ccc(F)cc1` (stereo unspecified), for which, in assay [7], the Ki worked out at 0.09 µM.
Regarding `CCOC(=O)CCS`, in [2], the INH came to 0.25 µM.
Take `CC(NC(=O)COc1ccccc1)C(O)C(F)(F)F` (stereo unspecified): the Ki in [17], in assay [18], in [10] and in assay [19] was 1.5 µM throughout.
As to `C[C@H](NC(=O)[C@H](Cc1ccc(CC(=O)O)c(C(=O)O)c1)NC(=O)[C@H](CCC(=O)O)NC(=O)OCC1c2ccccc2-c2ccccc21)C(N)=O`, the Ki in [3] was 201 µM; in [4] it was 279 µM.
`O=P(O)(O)CCS` registered an IC50 in [8] of 3000 µM.
On to `O=C(c1ccccc1)C(C(=O)c1ccccc1)(c1cccc2ccccc12)P(=O)(O)O`, for which the IC50 in assay [20] (read-out: IC50) was found to be 1.4 µM.
For the molecule `O=C(O)CS`, the INH in assay [2] is 0.23 µM.
Regarding `CCOC(=O)CS`, the INH in assay [2] is 1.4 µM.
Regarding `C[C@H](NC(=O)[C@H](Cc1ccc(OCC(=O)O)c(C(=O)O)c1)NC(=O)[C@H](CCC(=O)O)NC(=O)OCC1c2ccccc2-c2ccccc21)C(N)=O`, the Ki in assay [3] came to 112 µM; in assay [4] it was 146 µM.
In the case of `C[C@H](NC(=O)[C@H](Cc1ccc(OC(C(=O)O)C(=O)O)cc1)NC(=O)[C@H](CCC(=O)O)NC(=O)OCC1c2ccccc2-c2ccccc21)C(=O)O`, the Ki came out at 14 µM in [5] and 26 µM in assay [6].
On to `O=C(COc1ccccc1)NC(Cc1ccccc1)C(O)C(F)(F)F` (stereo unspecified), for which the Ki in [17], in assay [18], in assay [10] and in assay [19] was 1.5 µM throughout.
With `O=C(COc1ccccc1)NC(Cc1ccccc1)C(=O)C(F)(F)F` (stereo unspecified), the Ki in assay [17], in [18], in assay [10] and in [19] was 1.5 µM in each case.
For `O=P(O)(O)C(O)c1cccc2ccccc12` (stereo unspecified), the IC50 entry in [20] was “Not Active”.
Regarding `O=P(O)(O)CP(=O)(O)O` [MEDRONIC ACID], in [8], the Ki turned out to be 140 µM.
With `O[C@H](CS)[C@H](O)CS`, the INH in [2] is 0.55 µM.
Turning to `O=P(O)(O)CCCS`, in assay [8], the IC50 stood at 160 µM.

In general, Ki refers to the dissociation constant of the complex between target and ligand, obtained from inhibition or displacement. As a reminder, the IC50 is the concentration needed to halve the response being measured.
